Experimental findings from patent US20160025704A1, “METHODS FOR IDENTIFYING NEUROPROTECTIVE PKC ACTIVATORS” (priority 2013, published 2016) are described below.

The structures appear in SMILES notation.

The test system of one experiment is ECE. Briefly: ECE activity in SH-SY5Y cells (fluorometric). The class given is cell-based. As to conditions: compared to ethanol alone. How it is done: Aβ can be degraded in vivo by a number of enzymes, including insulin degrading enzyme (insulysin), neprilysin, and ECE (FIG. 12). Because PKC-ε overexpression has been reported to activate ECE (Choi et al., Proc. Natl. Acad. Sci. USA. 2006; 103: 8215-20), the effect of PKC activators on ECE was analyzed. Candidate PKC activators were added to either SH-SY5Y cells (Bryo—0.27 nM, DCP-LA—1 μM, and DHA-CP6 1 μM) or cultured neurons (DHA-CP6—1 μM, EPA-CP5— 1 μM, and AA-CP4— 1 μM), and grown on either 12- or 24-well plates. After various time periods, the cells were collected and ECE activity was measured fluorometrically. Results are shown below in FIG. 13. *, p<0.05; **, p<0.001.
PKCε overexpression has been reported to activate endothelin converting enzyme (ECE). The effect of PKC activators on ECE was measured here with Bryostatin, DCP-LA, and DHA-CP6. […] Protocol: Bryostatin (0.27 nM), DCP-LA (1 μM), DHACP6 (1 μM), EPA-CP5 (1 μM), AA-CP4 (1 μM), or ethanol alone were added to SH-SYSY cells growing on 12- or 24-well plates. After various periods of time, the cells were collected and ECE activity was measured fluorometrically as showing in FIG. 34 below (* p<0.05, ** p<0.001).

Experiment [1] relates to BDNF, NGF, NT-3, and GAP-43 mRNA. Description: NTF mRNA expression in primary hippocampal neurons treated with Aβ (real time PCR). The experiment is classed as cell-based, rat. Conditions: co-treated 24 hours or treated 12 hours after Aβ. The protocol: Protocol: Primary hippocampal neurons were treated with control buffer (Untreated), Aβ (1 μM, oligomeric form), or 0.5 nM bryostatin for 24 hours. Some cells were co-treated with Aβ plus 0.5 nM bryostatin (Bryo+Aβ) for 24 hours, or pre-treated with Aβ for 12 hours, washed out, and then treated with bryostatin for additional 12 hours (Aβ+Bryo). Cells were then lysed and total RNA was isolated. Relative expression change of BDNF, NGF, NT-3, and GAP-43 mRNA was quantitatively measured from real time PCR using specific primers against rat BDNF, NGF, NT-3, and GAP-43 mRNA (FIG. 14). A representative gel image is also shown below in FIG. 14 (Mean+SEM, *P<0.05, Aβ compared with untreated; #P<0.05, Bryo+Aβ or Aβ+Bryo compared with Aβ only).
Test A—DCPLA (500 nM): Primary hippocampal neurons were treated with control buffer (Untreated), Aβ (1 μM, oligomer), or 500 nM DCPLA for 24 hours. Some cells were pre-treated with Aβ for 12 hr and then treated with 500 nM DCPLA for 12 hours (Aβ+DCP-LA), or co-treated with Aβ plus 500 nM DCP-LA (DCP-LA+Aβ) for 24 hours. Total RNA was isolated and relative expression change of BDNF, NGF, NT-3, and GAP-43 mRNA was quantitatively measured from real time RT-PCR using specific primers against rat BDNF, NGF, NT-3, and GAP-43 mRNA (FIG. 15). A representative gel image is also shown below in FIG. 15 (Mean+SEM of three independent experiments, *P<0.05, Aβ compared with untreated; #P<0.05, Aβ+Bryo or Bryo+Aβ compared with Aβ only).
Test B—DCPLA-methyl ester (100 nM): Primary hippocampal neurons were treated with control buffer (Untreated), 1 μM Aβ, or 100 nM DCP-LA ME (the methyl ester form of DCP-LA) for 24 hours. Some cells were pre-treated with Aβ for 12 hr and then treated with 100 nM DCP-LA ME for 12 hours (Aβ+DCP-LA ME), or co-treated with Aβ plus […] (DCP-LA ME+Aβ) for 24 hours. Total RNA was isolated and relative expression change of BDNF, NGF, NT-3, and GAP-43 mRNA was quantitatively measured from real time RT-PCR using specific primers against rat BDNF, NGF, NT-3, and GAP-43 mRNA (FIG. 16). […]
For orientation: Quantitative PCR measures a nucleic acid by following its amplification.

The test system of the next experiment is 5XFAD mice. Description: Water maze learning and memory and amyloid deposition in 5XFAD mice. The class given is in vivo. Conditions: 2 times/week from 2 months old. The source says:
Protocol: 5-month old 5XFAD mice were trained for 5-6 days (3-4 trials/day) to find a hidden platform (9 cm diameter), submerged about 2 cm below the water surface in the a maze pool with 114 cm diameter. After the training trials, a probe trial (a quadrant test or memory retention trial) was given with the platform removed to assess memory retention for its location by the distance the mouse moved in the quadrants. […] Non-treated groups (wild-type and transgenic (5×) mice) received the same vehicle volumes, mechanism of delivery, and frequency of administration as the treated groups

As for `CCC/C=C/C=C/C(=O)O[C@H]1/C(=C/C(=O)OC)C[C@H]2C[C@H]([C@@H](C)O)OC(=O)C[C@H](O)C[C@@H]3C[C@H](OC(C)=O)C(C)(C)[C@](O)(C[C@@H]4C/C(=C/C(=O)OC)C[C@H](/C=C/C(C)(C)[C@]1(O)O2)O4)O3` [Bryostatin, bryostatin-1], the ECE activity entry in the experiment with ECE (0.27 nM) is on record as “sustained increase in ECE activity”. Also, in the experiment with ECE (0.27 nM, listed as Bryo), the ECE activity entry was “increase in ECE activity”. The “NTF mRNA expression decreased by Aβ” value in experiment [1] (0.5 nM, Aβ 1 μM oligomeric) was “recovers NTF mRNA expression decreased by Aβ”. Besides, in the experiment on 5XFAD mice (30 μg/kg intraperitoneal), the amyloid deposition result is recorded as “reduced amyloid deposition”; the “learning and memory deficits (water maze)” value is “prevented learning (A, C) and memory deficits (B, D)”.
In the case of `CCCCCC1CC1CC1CC1CCCCCCCC(=O)O` (stereo not drawn) [DCPLA, 8-[2-(2-pentylcyclopropyl)methyl]-cyclopropaneoctanoic acid], the ECE activity entry in the experiment with ECE (1 μM) is listed as “sustained increase in ECE activity”. Besides, the “NTF mRNA expression decreased by Aβ” value in experiment [1] (500 nM, Aβ 1 μM oligomer) is “recovers NTF mRNA expression decreased by Aβ”. Besides, in the experiment on 5XFAD mice (20 mg/m2 tail vein), the amyloid deposition entry was “reduced amyloid deposition”; the “learning and memory deficits (water maze)” value was “prevented learning (A, C) and memory deficits (B, D)”.
